These are literature values, as cited in patent US6692771B2, “Emulsions as solid dosage forms for oral administration” (CIMA Labs Inc., priority 2001, dated 2004).

For this data set the following is noted: orally administered dose; average value given in parentheses.

As to methyldopa, the average bioavailability is recorded as 25%.

Regarding `Oc1ccc2c3c1O[C@H]1[C@@H](O)CC[C@@]4(O)[C@@H](C2)N(CC2CCC2)CC[C@]314` [nalbuphine], the average bioavailability entry is given as “approximately 17%”.
